Data as given in patent publication US11584763B2, “Chromenopyridine derivatives as phosphatidylinositol phosphate kinase inhibitors” (HIBERCELL, INC., priority 2017, dated 2023).

Legend:
PIP4K2B = biological target: T1, PIP4K2B (Homo sapiens, UniProt P78356); test: Trans-FI P kinase assay PIP4K2B (PIP4KtypeIIB inhibition assay); format: biochemical; conditions: compounds listed under IC50 bin headings; 100 uM GTP; read-out: Trans-FI P kinase assays: PIP4K2B IC50
T1 construct: made in house; host or cells: E. coli
T1 sequence (P78356 1-416): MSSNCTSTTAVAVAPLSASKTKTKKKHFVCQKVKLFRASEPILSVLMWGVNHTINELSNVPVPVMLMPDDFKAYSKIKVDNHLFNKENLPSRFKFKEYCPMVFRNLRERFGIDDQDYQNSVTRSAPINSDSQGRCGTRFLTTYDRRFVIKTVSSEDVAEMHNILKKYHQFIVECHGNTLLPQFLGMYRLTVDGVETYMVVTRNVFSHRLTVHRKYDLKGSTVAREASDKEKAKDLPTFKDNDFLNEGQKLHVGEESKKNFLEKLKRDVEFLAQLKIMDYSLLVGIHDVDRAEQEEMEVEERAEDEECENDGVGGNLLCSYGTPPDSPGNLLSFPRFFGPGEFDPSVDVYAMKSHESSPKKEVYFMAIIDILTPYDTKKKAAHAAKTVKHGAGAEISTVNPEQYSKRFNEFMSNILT
Description: GST tagged PIP4KtypeIIA and B enzymes were overexpressed in E. Coli and purified to >80% homogeneity. Phosphatidyl inositol-5-phosphate (PI5P, Cat. #850152, Avanti Polar Lipids Inc.) was used as the lipid substrate and phosphatidyl ethanolamine (DOPE 18:1, Cat. #850725, Avanti Polar Lipids Inc.) was used as the carrier lipid for assays. Ultrapure ATP and GTP was purchased from Bellbrooke Labs. ADP Glo reagents were obtained from Promega. Transcreener FI reagent was obtained from Bellbrooke labs.
GST-tagged PIP4KtypeIIB (3.4 uL, 2.77 mg/mL) was diluted to 5 mL using HNE buffer to yield 5× enzyme stock (25 nM)
Lipid Preparation: In a 10 mL pyrex glass vial, 1 ug of PI5P and 1 ug of DOPE were suspended in 2.5 mL of HEPES buffer mix and 2.5 mL of H:E buffer. The contents were mixed and sonicated for 3 min to yield a translucent lipid stock.
Compound Preparation: Compounds were stored as 5 mM stocks in neat DMSO as room temperature in glass vials. 5 mM stocks were diluted to 2 mM and then serially diluted (3×) in neat DMSO in 96 well polypropylene plates. From the serially diluted stocks, 3 uL was delivered into 250 uL of 25% DMSO (in water) to generate 5× compound stocks. Typically, the highest compound conc. was 24 uM.
The assay volume was kept at 25 uL. To each well of the reaction plate, 10 uL of lipid stock (1:1 ratio PI5P:DOPE) was delivered. This was followed by the addition of 5 uL of compound in 25% DMSO. Then, to each well, 5 uL of 25 nM (5×) typeIIB enzyme was delivered. The contents were mixed well and incubated for 1 h at 27 C. After 1 h, reaction was initiated by adding 5 uL of 500 uM GTP and the contents were mixed well with a multi-channel pipetteman. The final concentration of the reagents are as follows: 50 mM HEPES, pH 7.3, 10 mM MgCl2, 20 mM NaCl, 0.01% v/v triton-X100, 5% DMSO, 100 uM GTP, 80 uM (2 ug) PI5P, 2 ug DOPE, and 5 nM PIP4KIIB Typically, the highest conc. of compounds was 4.8 uM and the lowest conc. was 0.
After 2 h, the reaction was quenched by adding 25 uL of transcreener FI reagent. The contents were incubated at RT for 1 h and the Fluorescence (Ex: 584 Em: 623) was read using Molecular Devices Paradigm plate reader. […] The blanks were averaged and subtracted from all other wells. Using a calibration curve, RFU was converted to uM GDP (product). IC50 was calculated by plotting the residual activity (expressed as % No inhibitor control) vs. log [Inh. conc.]

PIP4K 2A = biological target: T2, PIP4K 2A (Homo sapiens, UniProt P48426); test: ADP-glo kinase assay PIP4K 2A; format: biochemical; set-up: 4 nM PIP4K2A (full length protein, SignalChem); purchased SignalChem; conditions: compounds listed under IC50 bin headings
T2 sequence (P48426 1-406): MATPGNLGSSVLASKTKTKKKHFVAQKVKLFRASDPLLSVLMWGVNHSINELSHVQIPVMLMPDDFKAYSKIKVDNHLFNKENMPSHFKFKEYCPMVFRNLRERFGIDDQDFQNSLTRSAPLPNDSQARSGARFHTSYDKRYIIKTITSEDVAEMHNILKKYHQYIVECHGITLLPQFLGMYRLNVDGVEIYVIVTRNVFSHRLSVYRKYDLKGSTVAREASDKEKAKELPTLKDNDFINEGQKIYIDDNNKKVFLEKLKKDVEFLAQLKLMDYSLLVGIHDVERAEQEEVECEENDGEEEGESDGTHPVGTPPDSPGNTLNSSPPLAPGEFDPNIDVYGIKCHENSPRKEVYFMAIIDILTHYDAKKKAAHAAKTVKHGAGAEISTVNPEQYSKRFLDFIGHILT
Experimental: Dilution series of the compounds were prepared in DMSO at 100 times the final assay concentration (n1=n0/3 in 10 points). The compounds were further diluted to three times the assay concentration in assay buffer (20 mM MOPS pH 7.2, 25 mM magnesium chloride, 0.005% Tween 20). 6 μL of the diluted compounds were added to a 384 well assay plate followed by 9 μL of a mix consisting of 4 nM PIP4K2A (full length protein, SignalChem) and 100 μM PI(5)P diC8 (Tebu-Bio). Enzyme and compounds were pre-incubated at room temperature for 15 minutes.
Then 3 μL of a solution containing 60 μM ATP (Promega) in assay buffer was added to the wells containing compound and enzyme and mixing was performed by pipetting several times. The reaction was incubated at room temperature for 1 h. Then 18 μL of ADP-Glo™ Reagent (Promega) was added to stop the kinase reaction and deplete the unconsumed ATP, mixing was performed by pipetting several times. The plate was incubated at room temperature for 40 minutes before addition of 36 μL of Kinase Detection Reagent (Promega) to convert ADP to ATP and introduce luciferase and luciferin to detect ATP. The reaction was incubated at room temperature for 40 minutes before the luminescence was measured in a in a Victor 3V 1420 multilabel counter (Perkin Elmer).
Percent inhibition of the compounds as compared to dimethyl sulfoxide treated control samples was calculated. Compound concentration versus percent inhibition were fitted to generate IC50 values.

SMILES: CC1Oc2cc(N3CCCC3=O)ccc2-c2cnc(Nc3cnc4cccc(S(C)(=O)=O)c4c3)cc21 (stereo not shown) [Example 92, 1-(5-methyl-3-((5-(methylsulfonyl)quinolin-3-yl)amino)-5H-chromeno[4,3-c]pyridin-8-yl)pyrrolidin-2-one]
- IC50 (PIP4K2B): > 1 µM
- IC50 (PIP4K 2A): 0.001 to 0.01 µM

SMILES: COC(=O)Nc1cncc(Nc2cc3c(cn2)-c2ccc(N4CCCC4=O)cc2OC3C)c1 (stereo not shown) [Example 98, methyl (5-((5-methyl-8-(2-oxopyrrolidin-1-yl)-5H-chromeno[4,3-c]pyridin-3-yl)amino)pyridin-3-yl)carbamate]
- IC50 (PIP4K2B): 0.01 to 0.1 µM
- IC50 (PIP4K 2A): 0.001 to 0.01 µM

SMILES: CNC(=O)Nc1cncc(Nc2cc3c(cn2)-c2ccc(N4CCCC4=O)cc2OC3C)c1 (stereo not shown) [Example 99, 1-methyl-3-(5-((5-methyl-8-(2-oxopyrrolidin-1-yl)-5H-chromeno[4,3-c]pyridin-3-yl)amino)pyridin-3-yl)urea]
- IC50 (PIP4K2B): 0.01 to 0.1 µM
- IC50 (PIP4K 2A): 0.001 to 0.01 µM

SMILES: CC1Oc2cc(N3CCCC3=O)ccc2-c2cnc(Nc3cncc(NC(=O)CO)c3)cc21 (stereo not shown) [Example 101, 2-hydroxy-N-(5-((5-methyl-8-(2-oxopyrrolidin-1-yl)-5H-chromeno[4,3-c]pyridin-3-yl)amino)pyridin-3-yl)acetamide]
- IC50 (PIP4K2B): 0.01 to 0.1 µM
- IC50 (PIP4K 2A): 0.001 to 0.01 µM

SMILES: CC1Oc2cc(N3CCCC3=O)ccc2-c2cnc(Nc3cncc(NC(=O)Nc4ccccn4)c3)cc21 (stereo not shown) [Example 102, 1-(5-((5-methyl-8-(2-oxopyrrolidin-1-yl)-5H-chromeno[4,3-c]pyridin-3-yl)amino)pyridin-3-yl)-3-(pyridin-2-yl)urea]
- IC50 (PIP4K2B): 0.01 to 0.1 µM
- IC50 (PIP4K 2A): 0.001 to 0.01 µM

SMILES: CC1Oc2cc(N3CCCC3=O)ccc2-c2cnc(Nc3cncc(NC(=O)C4CCNC4=O)c3)cc21 (stereo not shown) [Example 104, N-(5-((5-methyl-8-(2-oxopyrrolidin-1-yl)-5H-chromeno[4,3-c]pyridin-3-yl)amino)pyridin-3-yl)-2-oxopyrrolidine-3-carboxamide]
- IC50 (PIP4K2B): 0.01 to 0.1 µM
- IC50 (PIP4K 2A): 0.001 to 0.01 µM

SMILES: CC1Oc2cc(N3CCCC3=O)ccc2-c2cnc(Nc3cncc(NC(=O)CCC(=O)O)c3)cc21 (stereo not shown) [Example 105, 4-((5-((5-methyl-8-(2-oxopyrrolidin-1-yl)-5H-chromeno[4,3-c]pyridin-3-yl)amino)pyridin-3-yl)amino)-4-oxobutanoic acid]
- IC50 (PIP4K2B): 0.01 to 0.1 µM
- IC50 (PIP4K 2A): 0.001 to 0.01 µM

SMILES: CC1Oc2cc(N3CCCC3=O)ccc2-c2cnc(Nc3cncc(NC(=O)Cc4ccccc4)c3)cc21 (stereo not shown) [Example 107, N-(5-((5-methyl-8-(2-oxopyrrolidin-1-yl)-5H-chromeno[4,3-c]pyridin-3-yl)amino)pyridin-3-yl)-2-phenylacetamide]
- IC50 (PIP4K2B): 0.01 to 0.1 µM
- IC50 (PIP4K 2A): 0.001 to 0.01 µM

SMILES: CC1Oc2cc(N3CCCC3=O)ccc2-c2cnc(Nc3cncc(NC(=O)c4ccc5cc[nH]c5c4)c3)cc21 (stereo not shown) [Example 108, N-(5-((5-methyl-8-(2-oxopyrrolidin-1-yl)-5H-chromeno[4,3-c]pyridin-3-yl)amino)pyridin-3-yl)-1H-indole-6-carboxamide]
- IC50 (PIP4K2B): 0.01 to 0.1 µM
- IC50 (PIP4K 2A): 0.001 to 0.01 µM

SMILES: CC1Oc2cc(N3CCCC3=O)ccc2-c2cnc(Nc3cncc(NC(=O)c4ccc5ncoc5c4)c3)cc21 (stereo not shown) [Example 109, N-(5-((5-methyl-8-(2-oxopyrrolidin-1-yl)-5H-chromeno[4,3-c]pyridin-3-yl)amino)pyridin-3-yl)benzo[d]oxazole-6-carboxamide]
- IC50 (PIP4K2B): 0.001 to 0.01 µM
- IC50 (PIP4K 2A): 0.001 to 0.01 µM

SMILES: CC1Oc2cc(N3CCCC3=O)ccc2-c2cnc(Nc3cncc(NC(=O)c4ccc(NC=O)c(O)c4)c3)cc21 (stereo not shown) [Example 109A, 4-formamido-3-hydroxy-N-(5-((5-methyl-8-(2-oxopyrrolidin-1-yl)-5H-chromeno[4,3-c]pyridin-3-yl)amino)pyridin-3-yl)benzamide]
- IC50 (PIP4K2B): 0.01 to 0.1 µM
- IC50 (PIP4K 2A): 0.001 to 0.01 µM

SMILES: CC1Oc2cc(N3CCCC3=O)ccc2-c2cnc(Nc3cncc(NC(=O)CCc4ccccc4)c3)cc21 (stereo not shown) [Example 110, N-(5-((5-methyl-8-(2-oxopyrrolidin-1-yl)-5H-chromeno[4,3-c]pyridin-3-yl)amino)pyridin-3-yl)-3-phenylpropanamide]
- IC50 (PIP4K2B): 0.01 to 0.1 µM
- IC50 (PIP4K 2A): 0.001 to 0.01 µM

SMILES: CC1Oc2cc(N3CCCC3=O)ccc2-c2cnc(Nc3cncc(NC(=O)[C@H]4C[C@@H]4c4ccccc4)c3)cc21 (stereo partly drawn) [Example 111, (1S,2S)—N-(5-((5-methyl-8-(2-oxopyrrolidin-1-yl)-5H-chromeno[4,3-c]pyridin-3-yl)amino)pyridin-3-yl)-2-phenylcyclopropane-1-carboxamide]
- IC50 (PIP4K2B): 0.01 to 0.1 µM
- IC50 (PIP4K 2A): 0.001 to 0.01 µM

SMILES: CC1Oc2cc(N3CCCC3=O)ccc2-c2cnc(Nc3cncc(NC(=O)c4ccccn4)c3)cc21 (stereo not shown) [Example 112, N-(5-((5-methyl-8-(2-oxopyrrolidin-1-yl)-5H-chromeno[4,3-c]pyridin-3-yl)amino)pyridin-3-yl)picolinamide]
- IC50 (PIP4K2B): 0.01 to 0.1 µM
- IC50 (PIP4K 2A): 0.001 to 0.01 µM

SMILES: CC1Oc2cc(N3CCCC3=O)ccc2-c2cnc(Nc3cncc(NC(=O)c4cccnc4)c3)cc21 (stereo not shown) [Example 113, N-(5-((5-methyl-8-(2-oxopyrrolidin-1-yl)-5H-chromeno[4,3-c]pyridin-3-yl)amino)pyridin-3-yl)nicotinamide]
- IC50 (PIP4K2B): 0.01 to 0.1 µM
- IC50 (PIP4K 2A): 0.001 to 0.01 µM

SMILES: CC1Oc2cc(N3CCCC3=O)ccc2-c2cnc(Nc3cncc(NC(=O)c4ccncc4)c3)cc21 (stereo not shown) [Example 114, N-(5-((5-methyl-8-(2-oxopyrrolidin-1-yl)-5H-chromeno[4,3-c]pyridin-3-yl)amino)pyridin-3-yl)isonicotinamide]
- IC50 (PIP4K2B): 0.01 to 0.1 µM
- IC50 (PIP4K 2A): 0.001 to 0.01 µM

SMILES: CC1Oc2cc(N3CCCC3=O)ccc2-c2cnc(Nc3cncc(NC(=O)c4ccnc(N)c4)c3)cc21 (stereo not shown) [Example 115, 2-amino-N-(5-((5-methyl-8-(2-oxopyrrolidin-1-yl)-5H-chromeno[4,3-c]pyridin-3-yl)amino)pyridin-3-yl)isonicotinamide]
- IC50 (PIP4K2B): 0.001 to 0.01 µM
- IC50 (PIP4K 2A): ≤ 0.001 µM
